We go through six compounds from US7253202B2, “Substituted benzodioxepines” (Merck Patent GmbH, priority 2002, dated 2007).

pIC50: −log10 of the molar value.

One series deals with 5-HT4 receptor (UniProt O70528). Briefly: 5-HT4 receptor binding test according to Grossman et al. Particulars: binding to the 5-HT4 receptor; read-out: 5HT4 (IC50 in nmol/l). The source says:
For determination of the binding properties of the compounds of the formula I to the 5-HT4 receptor, use can be made of the test according to Grossman et al. (Grossman et al., Br. J. Pharmacol. 109, (1993), 618-24).
In order to determine the binding properties to the 5-HT4 receptor, use was made of the test in accordance with Grossman et al. (Grossman et al., Br. J. Pharmacol. 109, (1993), 618-24).

The target of the next series is T1, 5HT1A receptor (Rattus norvegicus, UniProt P19327).
T1 construct: from tissue; host or cells: rat brain (hippocampal) membranes
T1 sequence (P19327 1-422): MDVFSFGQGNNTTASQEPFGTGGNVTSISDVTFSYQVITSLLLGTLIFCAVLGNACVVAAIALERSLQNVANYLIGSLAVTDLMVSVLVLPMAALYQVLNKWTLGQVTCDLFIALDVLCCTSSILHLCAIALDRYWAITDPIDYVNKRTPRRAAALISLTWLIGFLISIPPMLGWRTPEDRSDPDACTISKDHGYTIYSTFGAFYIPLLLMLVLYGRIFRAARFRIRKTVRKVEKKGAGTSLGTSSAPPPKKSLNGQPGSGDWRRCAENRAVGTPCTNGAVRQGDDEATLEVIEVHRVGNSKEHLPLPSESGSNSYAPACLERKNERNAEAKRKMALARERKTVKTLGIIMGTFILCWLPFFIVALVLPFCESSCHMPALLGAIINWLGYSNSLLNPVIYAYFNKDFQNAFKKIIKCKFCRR
Briefly: 5-HT1A (serotonin) binding test. Particulars: binding to the 5HT1A receptor; read-out: 5HT1A (IC50 in nmol/l). The protocol: Binding properties of the compounds of the formula I can be determined, for example, by the 5-HT1A (serotonin) binding test (Matzen et al., J. Med. Chem., 43 (2000), 1149-1157, in particular page 1156 with reference to Eur. J. Pharmacol.: 140 (1987), 143-155).
The binding properties to the 5HT1A receptor was determined with the aid of the 5-HT1A (serotonin) binding test (Matzen et al., J. Med. Chem., 43 (2000), 1149-1157, in particular page 1156 with reference to Eur. J. Pharmacol.: 140 (1987), 143-155).

In another series the target is T2, serotonin reuptake (Rattus norvegicus, UniProt P31652).
T2 construct: from tissue
T2 sequence (P31652 whole entry): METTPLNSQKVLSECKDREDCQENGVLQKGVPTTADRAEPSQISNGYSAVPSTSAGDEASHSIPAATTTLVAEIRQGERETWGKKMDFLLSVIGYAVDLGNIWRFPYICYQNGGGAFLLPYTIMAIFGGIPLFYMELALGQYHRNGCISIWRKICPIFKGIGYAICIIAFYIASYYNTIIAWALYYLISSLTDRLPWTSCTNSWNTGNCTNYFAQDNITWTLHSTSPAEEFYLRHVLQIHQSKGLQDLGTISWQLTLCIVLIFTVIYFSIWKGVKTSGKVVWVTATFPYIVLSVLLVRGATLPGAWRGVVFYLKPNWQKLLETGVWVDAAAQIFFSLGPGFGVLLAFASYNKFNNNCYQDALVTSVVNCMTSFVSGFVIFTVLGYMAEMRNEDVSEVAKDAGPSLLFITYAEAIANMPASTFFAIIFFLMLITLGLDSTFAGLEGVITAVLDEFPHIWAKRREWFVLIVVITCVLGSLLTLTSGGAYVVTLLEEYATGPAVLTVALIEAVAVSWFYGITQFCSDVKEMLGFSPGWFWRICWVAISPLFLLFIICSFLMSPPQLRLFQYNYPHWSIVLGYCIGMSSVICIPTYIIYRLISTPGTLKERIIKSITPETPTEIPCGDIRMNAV
As to the kind of experiment: Serotonin reuptake inhibition by synaptosomal uptake inhibition (Wong et al.). Conditions: read-out: SSRI (IC50 in nmol/l). It is filed as biochemical. The source says:
For ex-vivo detection of serotonin reuptake inhibition, use can be made, for example, of synaptosomal uptake inhibition (Wong et al., Neuropsychopharmacol. 8 (1993), 23-33) and p-chloroamphetamine antagonism (Fuller et al., J. Pharmacol. Exp. Ther. 212 (1980), 115-119).
The serotonin reuptake inhibition was investigated with the aid of synaptosomal uptake inhibition by the method of Wong et al. (Neuropsycho-pharmacol. 8 (1993), 23-33).

In the case of `N#Cc1ccc2[nH]cc(CCCCNCC3CCOc4ccccc4O3)c2c1` (stereo not shown) [EMD 87322], the figures for the pIC50 on 5-HT4 receptor, at 5HT1A receptor and at serotonin reuptake were 8.08, 8.40 and 9.22, respectively.

What is called melting point is the temperature, or range, at which the solid turns liquid. `N#Cc1ccc2[nH]cc(CCCCNCC3CCOc4ccccc4O3)c2c1` (stereo not shown) (hydrate or solvate) [EMD 87322] registered a melting point of 78 °C.

Consider `Cc1ccc2c(c1)OCC(NCCCCc1c[nH]c3ccc(C#N)cc13)CO2` (stereo not shown) [EMD 85350, 3-{4-[7-methyl-3,4-dihydro-2H-1,5-benzodioxepin-3-ylamino]butyl}indole-5-carbonitrile], for which the pIC50 was 8.52 at 5HT1A receptor and 8.40 at serotonin reuptake.

`N#Cc1ccc2[nH]cc(CCCCNC3COc4ccccc4OC3)c2c1` [EMD 76066, N-(3,4-dihydro-2H-1,5-benzodioxepin-3-yl)-4-(5-cyano-3-indole)butylamine] showed a melting point of 166 to 168 °C. Moreover, the pIC50 at 5HT1A receptor was 9.30. Besides, the pIC50 on serotonin reuptake was 8.10.

Consider `Cc1cccc2c1OCC(NCCCCc1c[nH]c3ccc(C#N)cc13)CO2` (stereo not shown) [EMD 87319, 3-{4-(6-methyl-3,4-dihydro-2H-1,5-benzodioxepin-3-ylamino)butyl}indole-5-carbonitrile], for which the pIC50 on 5HT1A receptor was 8.70; on serotonin reuptake, 8.52.

`COc1cccc2c1OCC(NCCCCc1c[nH]c3ccc(C#N)cc13)CO2` (stereo not shown) [EMD 87326, 3-[4-(6-methoxy-3,4-dihydro-2H-1,5-benzodioxepin-3-ylamino)butyl]indole-5-carbonitrile]: the pIC50 is 9.22 on 5HT1A receptor and 9.00 at serotonin reuptake.
